Test results reported in patent US20180263992A1, “TREATMENT OF NEURODEGENERATIVE DISEASES” (BENEVOLENTAI BIO LIMITED, priority 2015, published 2018).
Values belong to the compound of their own block, whether it stands above or below them.

Tests used:
[1] = Entry of Gefitinib into the brain with prior P-gp inhibitor; assay type: in vivo, C57BL/6 mice
ALS = settings: cited from earlier work
[2] = multi-dose animal studies; cited from earlier work
[3] = tested on: SOD1G93A mouse model of ALS; settings: cited from earlier work
[4] = in vivo; cited from earlier work
human cancer cells = settings: cited from earlier work
P-glycoprotein (P-gp) = P-glycoprotein (P-gp) (Homo sapiens, UniProt P08183); settings: Togashi et al. 2012; cited from earlier work
[5] = phase I trials; cited from earlier work
[6] = in vivo; cited from earlier work; remark: listed apart in the source
[7] = tested on: murine Hb9-GFP+ motor neurons co-cultured with ALS patient iAstrocytes; test: ALS patient iAstrocyte / mouse Hb9-GFP+ motor neuron co-culture, motor neuron survival; assay type: cell-based, human iAstrocytes, mouse motor neurons; settings: iAstrocytes of three ALS patients pre-treated 24 h; survival at 72 h vs 24 h, normalised to DMSO control

P-glycoprotein (P-gp), sequence (P08183 whole entry): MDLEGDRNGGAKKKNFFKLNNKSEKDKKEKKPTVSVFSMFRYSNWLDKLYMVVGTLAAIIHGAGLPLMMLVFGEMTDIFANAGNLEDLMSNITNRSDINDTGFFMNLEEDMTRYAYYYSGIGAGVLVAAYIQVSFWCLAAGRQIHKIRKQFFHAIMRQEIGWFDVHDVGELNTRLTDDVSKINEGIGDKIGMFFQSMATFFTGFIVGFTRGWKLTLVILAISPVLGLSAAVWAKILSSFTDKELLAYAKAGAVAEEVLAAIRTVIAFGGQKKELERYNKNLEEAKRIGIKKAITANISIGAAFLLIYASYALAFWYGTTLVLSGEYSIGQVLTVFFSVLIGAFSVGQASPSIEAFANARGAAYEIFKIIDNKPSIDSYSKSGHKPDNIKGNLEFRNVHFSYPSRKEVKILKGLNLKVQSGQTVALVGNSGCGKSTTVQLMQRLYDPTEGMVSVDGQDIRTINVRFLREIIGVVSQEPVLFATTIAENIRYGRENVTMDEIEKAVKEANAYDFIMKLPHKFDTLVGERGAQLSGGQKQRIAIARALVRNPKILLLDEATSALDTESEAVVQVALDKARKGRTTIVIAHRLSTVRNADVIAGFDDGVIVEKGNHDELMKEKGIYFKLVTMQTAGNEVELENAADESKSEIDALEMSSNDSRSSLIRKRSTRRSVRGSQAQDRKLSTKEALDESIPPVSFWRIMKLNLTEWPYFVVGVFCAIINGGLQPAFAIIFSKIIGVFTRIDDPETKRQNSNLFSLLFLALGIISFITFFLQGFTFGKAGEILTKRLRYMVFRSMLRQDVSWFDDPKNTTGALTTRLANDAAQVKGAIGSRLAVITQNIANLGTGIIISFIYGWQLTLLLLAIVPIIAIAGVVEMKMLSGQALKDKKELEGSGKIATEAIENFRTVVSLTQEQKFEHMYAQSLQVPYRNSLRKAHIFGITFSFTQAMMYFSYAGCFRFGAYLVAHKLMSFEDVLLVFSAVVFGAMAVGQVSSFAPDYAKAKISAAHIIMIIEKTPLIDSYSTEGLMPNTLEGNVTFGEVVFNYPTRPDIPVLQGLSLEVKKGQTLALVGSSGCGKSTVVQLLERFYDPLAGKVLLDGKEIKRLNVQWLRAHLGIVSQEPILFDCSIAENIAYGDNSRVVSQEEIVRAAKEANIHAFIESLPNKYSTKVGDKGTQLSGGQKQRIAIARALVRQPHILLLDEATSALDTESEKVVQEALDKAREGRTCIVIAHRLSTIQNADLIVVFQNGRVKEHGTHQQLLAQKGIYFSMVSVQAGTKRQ

CNS penetration of Gefitinib ([1]; Elacridar 100 mg/kg po before Gefitinib 30 mg/kg po, 2 h post dose): significantly increased
CNS penetration of Gefitinib ([1]; Elacridar 100 mg/kg po before Gefitinib 100 mg/kg po, 2 h post dose): significantly increased
SMILES: COc1cc2c(cc1OC)CN(CCc1ccc(NC(=O)c3cccc4c(=O)c5cccc(OC)c5[nH]c34)cc1)CC2 [Elacridar]

CNS penetration of Gefitinib ([1]; Everolimus 10 mg/kg ip): did not appear to have any effect
plasma exposure of Gefitinib ([1]; Everolimus 10 mg/kg ip): increased
SMILES: CO[C@H]1C[C@@H]2CC[C@@H](C)[C@@](O)(O2)C(=O)C(=O)N2CCCC[C@H]2C(=O)O[C@H]([C@H](C)C[C@@H]2CC[C@@H](OCCO)[C@H](OC)C2)CC(=O)[C@H](C)/C=C(\C)[C@@H](O)[C@@H](OC)C(=O)[C@H](C)C[C@H](C)/C=C/C=C/C=C/1C [Everolimus]

SMILES: Nc1nc2ccc(OC(F)(F)F)cc2s1 [Riluzole]
prolongs life (ALS; ALS): 2-3 months
relief of symptoms (ALS; ALS): does not relieve symptoms
undesirable side effects (ALS; in vivo): nausea and fatigue

SMILES: C=CC(=O)Nc1cc2c(Nc3ccc(F)c(Cl)c3)ncnc2cc1OCCCN1CCOCC1 [canertinib]
toxicity [2]: minimal toxicity

SMILES: C#Cc1cccc(Nc2ncnc3cc(OCCOC)c(OCCOC)cc23)c1 [erlotinib]
lifespan [3]: failed to extend lifespan
modulation of markers for astrocytes and microglia [3]: did not correlate with a modulation of markers for astrocytes and microglia
penetration into the central nervous system [3]: penetrated into the central nervous system
protection of motor synapses [3]: did not protect motor synapses
symptom delay (readouts of disease onset and progression) [3]: modest yet statistically significant symptom delay
undesirable side effects [4]: skin irritation and diarrhea
cell-cycle progression (human cancer cells): blocks cell-cycle progression in the G1 phase
concentration inhibiting EGF-dependent cell proliferation (human cancer cells): nanomolar concentrations

SMILES: COc1cc2ncnc(Nc3ccc(F)c(Cl)c3)c2cc1OCCCN1CCOCC1 [gefitinib, N-(3-chloro-4-fluoro-phenyl)-7-methoxy-6-(3-morpholin-4-ylpropoxy)quinazolin-4-amine]
P-glycoprotein (P-gp) substrate status (P-glycoprotein (P-gp)): substrate
maximal tolerated dosage [5]: 700 mg/day
biological half-life [6]: 28 hours
motor neuron survival [7]: dose-dependent increase in motor neuron survival
